Reference: PubChem BioAssay (NCI)
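Step 1: Grow cells in 96-well plates. Step 2: Expose to compound for 48 hours at 5 concentrations. Step 3: Interpolate endpoints linearly; if unreached, use highest concentration. TGI: total growth inhibition.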

Key:
Assay in all cases: NCI anticancer screen, dose series, 48 h
COLO 205 colon = tested on: COLO 205 colon
HCT-15 colon = tested on: HCT-15 colon
HOP-62 NSCLC = tested on: HOP-62 NSCLC
HOP-92 NSCLC = tested on: HOP-92 NSCLC
KM12 colon = tested on: KM12 colon
OVCAR-3 ovarian = tested on: OVCAR-3 ovarian
OVCAR-5 ovarian = tested on: OVCAR-5 ovarian
SF-539 CNS = tested on: SF-539 CNS
SK-MEL-28 melanoma = tested on: SK-MEL-28 melanoma
UACC-62 melanoma = tested on: UACC-62 melanoma

Brc1ccccc1-c1ncc(-c2ccccc2)o1
TGI (COLO 205 colon): 39.5 µM | TGI (HCT-15 colon): 44.9 µM | TGI (HOP-62 NSCLC): 96.8 µM | TGI (HOP-92 NSCLC): 46.3 µM | TGI (KM12 colon): 41.7 µM | TGI (OVCAR-3 ovarian): 89.6 µM | TGI (OVCAR-5 ovarian): > 100 µM | TGI (SF-539 CNS): 77.1 µM | TGI (SK-MEL-28 melanoma): > 100 µM | TGI (UACC-62 melanoma): > 100 µM

COc1cc(C2c3cc4c(cc3[C@@H](Nc3cccc(C(C)=O)c3)C3COC(=O)[C@H]23)OCO4)cc(OC)c1O (some centres not stated)
TGI (COLO 205 colon): 5.05 µM | TGI (HCT-15 colon): 2.06 µM | TGI (HOP-62 NSCLC): 0.538 µM | TGI (HOP-92 NSCLC): 14.8 µM | TGI (KM12 colon): 5.67 µM | TGI (OVCAR-3 ovarian): 13.9 µM | TGI (OVCAR-5 ovarian): > 59.7 µM | TGI (SF-539 CNS): 1.24 µM | TGI (SK-MEL-28 melanoma): 50.6 µM | TGI (UACC-62 melanoma): 4.67 µM

CC1(C)N=C(N)N=C(N)N1c1cccc(OCCOc2ccc([N+](=O)[O-])cc2)c1
TGI (COLO 205 colon): > 100 µM | TGI (HCT-15 colon): > 100 µM | TGI (HOP-62 NSCLC): > 100 µM | TGI (HOP-92 NSCLC): > 100 µM | TGI (KM12 colon): > 100 µM | TGI (OVCAR-3 ovarian): > 100 µM | TGI (OVCAR-5 ovarian): > 100 µM | TGI (SF-539 CNS): > 100 µM | TGI (SK-MEL-28 melanoma): > 100 µM

COc1ccc(CC(C)N)cc1 (configuration not stated)
TGI (COLO 205 colon): > 100 µM | TGI (HCT-15 colon): > 100 µM | TGI (HOP-62 NSCLC): > 100 µM | TGI (HOP-92 NSCLC): > 100 µM | TGI (KM12 colon): > 100 µM | TGI (OVCAR-3 ovarian): > 100 µM | TGI (OVCAR-5 ovarian): > 100 µM | TGI (SF-539 CNS): > 100 µM | TGI (SK-MEL-28 melanoma): > 100 µM | TGI (UACC-62 melanoma): > 100 µM

CC(C)(Br)C1(O)CCCN1C(=O)c1ccccc1 (configuration not stated)
TGI (COLO 205 colon): > 100 µM | TGI (HCT-15 colon): > 100 µM | TGI (HOP-92 NSCLC): > 100 µM | TGI (KM12 colon): > 100 µM | TGI (OVCAR-3 ovarian): > 100 µM | TGI (OVCAR-5 ovarian): > 100 µM | TGI (SF-539 CNS): > 100 µM | TGI (SK-MEL-28 melanoma): > 100 µM | TGI (UACC-62 melanoma): > 100 µM

NCc1ccccc1C1CSCSC1
TGI (HCT-15 colon): > 100 µM | TGI (KM12 colon): > 100 µM | TGI (OVCAR-3 ovarian): > 100 µM | TGI (SF-539 CNS): > 100 µM | TGI (SK-MEL-28 melanoma): > 100 µM | TGI (UACC-62 melanoma): > 100 µM

CC12Cc3cc4c(cc3C1(c1ccc([N+](=O)[O-])cc1)OCCO2)OCO4 (configuration not stated)
TGI (COLO 205 colon): > 100 µM | TGI (HCT-15 colon): > 100 µM | TGI (HOP-62 NSCLC): 46.5 µM | TGI (KM12 colon): > 100 µM | TGI (OVCAR-3 ovarian): > 100 µM | TGI (OVCAR-5 ovarian): > 100 µM | TGI (SF-539 CNS): > 100 µM | TGI (SK-MEL-28 melanoma): > 100 µM | TGI (UACC-62 melanoma): > 100 µM

O=C(CSCC(=O)N/N=C\c1ccc(-c2ccccc2)cc1)N/N=C\c1ccc(-c2ccccc2)cc1
TGI (COLO 205 colon): > 100 µM | TGI (HCT-15 colon): > 100 µM | TGI (HOP-62 NSCLC): 51.9 µM | TGI (HOP-92 NSCLC): > 100 µM | TGI (KM12 colon): 49.2 µM | TGI (OVCAR-3 ovarian): 30 µM | TGI (OVCAR-5 ovarian): 74.8 µM | TGI (SF-539 CNS): 37.9 µM | TGI (SK-MEL-28 melanoma): > 100 µM | TGI (UACC-62 melanoma): 62.4 µM

c1ccc(-c2nn(-c3ccccc3)[n+](-c3ccccc3)n2)cc1
TGI (COLO 205 colon): > 92.4 µM | TGI (HCT-15 colon): > 100 µM | TGI (HOP-62 NSCLC): > 100 µM | TGI (HOP-92 NSCLC): 96.3 µM | TGI (KM12 colon): > 81.7 µM | TGI (OVCAR-5 ovarian): > 100 µM | TGI (SF-539 CNS): > 100 µM | TGI (SK-MEL-28 melanoma): > 100 µM | TGI (UACC-62 melanoma): 40.9 µM

Cc1ccc(S(N)(=O)=O)cc1
TGI (COLO 205 colon): > 1000 µM | TGI (HCT-15 colon): > 1000 µM | TGI (HOP-62 NSCLC): > 1000 µM | TGI (HOP-92 NSCLC): > 1000 µM | TGI (KM12 colon): > 1000 µM | TGI (OVCAR-3 ovarian): > 1000 µM | TGI (OVCAR-5 ovarian): > 1000 µM | TGI (SF-539 CNS): > 1000 µM | TGI (UACC-62 melanoma): > 1000 µM

COc1ccc(NC(=O)/C(=C/c2ccc(N(CCC#N)CCC#N)cc2)NC(=O)c2cc([N+](=O)[O-])ccc2Cl)cc1
TGI (COLO 205 colon): > 100 µM | TGI (HCT-15 colon): > 100 µM | TGI (HOP-62 NSCLC): > 100 µM | TGI (HOP-92 NSCLC): > 100 µM | TGI (KM12 colon): > 100 µM | TGI (OVCAR-3 ovarian): > 100 µM | TGI (OVCAR-5 ovarian): > 100 µM | TGI (SF-539 CNS): 50.8 µM | TGI (SK-MEL-28 melanoma): > 100 µM | TGI (UACC-62 melanoma): > 100 µM

CCOC(=O)/C=C(\C)c1ccc(OC)cc1
TGI (COLO 205 colon): > 100 µM | TGI (HCT-15 colon): > 100 µM | TGI (HOP-92 NSCLC): > 100 µM | TGI (KM12 colon): > 100 µM | TGI (OVCAR-5 ovarian): > 100 µM | TGI (SF-539 CNS): > 100 µM | TGI (SK-MEL-28 melanoma): > 100 µM

c1ccc(CSc2nc(N3CCOCC3)c3cn[nH]c3n2)cc1
TGI (COLO 205 colon): 30.4 µM | TGI (HCT-15 colon): > 100 µM | TGI (HOP-62 NSCLC): > 100 µM | TGI (KM12 colon): 38.5 µM | TGI (OVCAR-3 ovarian): > 100 µM | TGI (OVCAR-5 ovarian): > 100 µM | TGI (SF-539 CNS): 56.4 µM | TGI (SK-MEL-28 melanoma): 43.4 µM | TGI (UACC-62 melanoma): 30.3 µM

CC[n+]1c(/C=C/c2ccc(N(CCCl)CCCl)cc2)ccc2cc(NC(=O)/C=C/c3ccccc3)ccc21
TGI (COLO 205 colon): 0.222 µM | TGI (HCT-15 colon): > 94.7 µM | TGI (HOP-62 NSCLC): 1.74 µM | TGI (HOP-92 NSCLC): 1.07 µM | TGI (KM12 colon): 1.58 µM | TGI (OVCAR-3 ovarian): 11.4 µM | TGI (OVCAR-5 ovarian): 6.03 µM | TGI (SF-539 CNS): 2.03 µM | TGI (SK-MEL-28 melanoma): 2.03 µM | TGI (UACC-62 melanoma): 2.28 µM
